# From patent US20250304576A1 (Cancer Research Technology Limited, priority 2022, published 2025)
# Key:
# PC3M cells = test: Cell viability, alamarBlue assay, PC3M cells; type: cell-based; settings: treatment for 48 hours
# Method: (§1) PC3, PC3M, LNCaP Al, cells were grown in RPMI 1640 media and PANC1 and MiaPac-2 cells were grown in Dulbecco's Modified Eagle's Media (DMEM) which was supplemented with 10% (v/v) Foetal Calf Serum (FCS) (Charcoal-stripped for LNCaP Als), L-glutamine ([…]) and penicillin/streptomycin (250 units/ml; 100 μg/ml). All cells were incubated in a humidified atmosphere at 37° C. and 5% (v/v) CO2. Cells were cultured as a monolayer in 10 ml media in […] vented flasks and grown until subculture was required.
# (§2) Cell viability determination: Cells (1000 cells/100 μl) were plated into 96 well plates and incubated for 24 hours at 37° C. and 5% (v/v) CO2 before being treated with SU1433. After incubation with SU1433 for 48 h, cell viability was measured using the alamarBlue® Assay (Thermofisher, UK). The media was removed and replaced with a 1:10 media to alamar blue solution. After a 1 h incubation at 37° C. and 5% CO2, the fluorescence was measured at 530-560 nm excitation wavelength and 590 nm emission wavelength in a fluorescence plate reader. All treatment were measured in duplicate wells and repeated at least 3 times. The results represent the fractional survival of untreated controls±SD.
# Recombinant IKKβ = molecular target: T1, Recombinant IKKβ (Homo sapiens, UniProt O14920); test: DELFIA IKKβ kinase assay (apparent Ki, Cheng-Prusoff); type: biochemical
# T1 construct: purchased Millipore, Dundee, UK
# T1 sequence (O14920 1-756): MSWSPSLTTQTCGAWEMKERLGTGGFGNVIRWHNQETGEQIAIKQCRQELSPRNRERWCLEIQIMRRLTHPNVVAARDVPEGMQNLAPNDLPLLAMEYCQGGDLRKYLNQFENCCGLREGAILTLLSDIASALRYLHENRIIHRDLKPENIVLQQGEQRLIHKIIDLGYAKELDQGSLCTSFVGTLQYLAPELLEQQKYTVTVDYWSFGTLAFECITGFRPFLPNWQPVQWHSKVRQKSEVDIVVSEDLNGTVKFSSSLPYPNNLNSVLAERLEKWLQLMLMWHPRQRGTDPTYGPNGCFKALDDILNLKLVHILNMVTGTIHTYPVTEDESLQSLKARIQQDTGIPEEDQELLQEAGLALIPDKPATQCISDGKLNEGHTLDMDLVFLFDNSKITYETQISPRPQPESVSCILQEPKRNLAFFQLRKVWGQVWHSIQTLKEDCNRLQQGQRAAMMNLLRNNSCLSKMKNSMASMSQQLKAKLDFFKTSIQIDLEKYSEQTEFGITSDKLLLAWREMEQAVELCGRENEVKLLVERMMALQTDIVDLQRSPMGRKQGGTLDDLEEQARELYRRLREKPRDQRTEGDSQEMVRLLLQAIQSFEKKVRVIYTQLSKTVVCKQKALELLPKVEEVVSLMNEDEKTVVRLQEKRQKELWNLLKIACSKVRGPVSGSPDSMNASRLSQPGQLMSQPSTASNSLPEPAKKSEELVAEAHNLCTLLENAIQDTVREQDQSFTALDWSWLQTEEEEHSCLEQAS
# In short: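 Recombinant IKKα or IKKβ (37 nM) with 0.375 μM biotinylated IκB-α (Ser32) peptide and 40 μM ATP in 40 mM Tris-HCl pH 7.5, 20 mM MgCl2, 60 min at 30° C. Phospho-substrate captured on streptavidin and detected by anti-phospho-IκB-α plus europium anti-mouse IgG time-resolved fluorescence; apparent Ki via Cheng-Prusoff.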
# LNCaP cells = test: Cell viability, alamarBlue assay, LNCaP cells; type: cell-based; settings: treatment for 48 hours
# Method: as §1, §2
# MiaPaca-2 cells = test: Cell viability, alamarBlue assay, MiaPaca-2 cells; type: cell-based; settings: treatment for 48 hours
# Method: as §1, §2
# PANC1 cells = test: Cell viability, alamarBlue assay, PANC1 cells; type: cell-based; settings: treatment for 48 hours
# Method: as §1, §2
# [1] = non-italicised figure: DELFIA assay
# [2] = DELFIA assay (first line of an example)
Ki (Recombinant IKKβ; [1]) [µM],Ki (Recombinant IKKβ; [2]) [µM],SMILES,also measured
1.47,,"CC(C)(C)C#Cc1cc(-c2ccnc(N)c2)cc2c(N)n[nH]c12 [Example 137, 5-(2-Aminopyridin-4-yl)-7-(3,3-dimethylbut-1-yn-1-yl)-1H-indazol-3-amine]",viability of PC3M cells (PC3M cells): reduced the viability; viability of LNCaP cells (LNCaP cells): reduced the viability; viability of MiaPaca-2 cells (MiaPaca-2 cells): reduced the viability; viability of PANC1 cells (PANC1 cells): reduced the viability
,0.461,"Nc1n[nH]c2ccc(-c3ccnc4[nH]c(CC5CCCCC5)cc34)cc12 [Example 221, 5-(2-(Cyclohexylmethyl)-1H-pyrrolo[2,3-b]pyridin-4-yl)-1H-indazol-3-amine]",
0.88,,"Nc1nccc(-c2ccc3[nH]nc(N)c3c2)c1C#CCCN1CCCCC1 [Example 93, 5-(2-Amino-3-(4-(piperidin-1-yl)but-1-yn-1-yl)pyridin-4-yl)-1H-indazol-3-amine]",
,1.03,"CN1CCN(C(=O)c2cc3c(-c4ccc5[nH]nc(N)c5c4)ccnc3[nH]2)CC1 [Example 243, (4-(3-Amino-1H-indazol-5-yl)-1H-pyrrolo[2,3-b]pyridin-2-yl)(4-methylpiperazin-1-yl)methanone]",
0.531,,"Nc1nccc(-c2ccc3[nH]nc(N)c3c2)c1C#CCCC(=O)N1CCOCC1 [Example 99, 5-(2-Amino-4-(3-amino-1H-indazol-5-yl)pyridine-3-yl)-1-morpholinopent-4-yn-1-one]",
,0.461,"Nc1n[nH]c2ccc(-c3ccnc4[nH]c(C5CCCCC5)cc34)cc12 [Example 219, 5-(2-Cyclohexyl-1H-pyrrolo[2,3-b]pyridin-4-yl)-1H-indazol-3-amine]",
3.27,,"Nc1nccc(-c2ccc3[nH]nc(N)c3c2)c1C#CCCCN1CCCCC1 [Example 95, 5-(2-Amino-3-(5-(piperidin-1-yl)pent-1-yn-1-yl)pyridin-4-yl)-1H-indazol-3-amine]",
,1.38,"Nc1n[nH]c2ccc(-c3ccnc4[nH]c(CCN5CCCCC5)cc34)cc12 [Example 267, 5-(2-(2-(Piperidin-1-yl)ethyl)-1H-pyrrolo[2,3-b]pyridine-4-yl)-1H-indazol-3-amine]",
0.511,,"Nc1cc(-c2cc(-c3ccoc3)c3[nH]nc(N)c3c2)ccn1 [Example 129, 5-(2-Aminopyridin-4-yl)-7-(furan-3-yl)-1H-indazol-3-amine]",
,0.181,"Nc1n[nH]c2c(C#CC3CC3)cc(-c3ccnc4[nH]ccc34)cc12 [Example 202, 7-(Cyclopropylethynyl)-5-(1H-pyrrolo[2,3-b]pyridin-4-yl)-1H-indazol-3-amine]",
,0.503,Nc1n[nH]c2ccc(-c3ccnc4[nH]c(CO)cc34)cc12 [Example 224],
1.41,,"Nc1nccc(-c2ccc3[nH]nc(N)c3c2)c1C#CC1(O)CCCCC1 [Example 90, 1-((2-Amino-4-(3-amino-1H-indazol-5-yl)pyridine-3-yl)ethynyl)cyclohexan-1-ol]",
1.15,,"Nc1nccc(-c2ccc3[nH]nc(N)c3c2)c1C#CCCCN1CCOCC1 [Example 96, 5-(2-Amino-3-(5-morpholinopent-1-yn-1-yl)pyridin-4-yl)-1H-indazol-3-amine]",
,1.13,"CN(C)CCCNCc1cc2c(-c3ccc4[nH]nc(N)c4c3)ccnc2[nH]1 [Example 258, N^1-((4-(3-amino-1H-indazol-5-yl)-1H-pyrrolo[2,3-b]pyridin-2-yl)methyl)-N^3,N^3-dimethylpropane-1,3-diamine]",
,0.277,"Nc1n[nH]c2ccc(-c3ccnc4[nH]c(CN5CCOCC5)cc34)cc12 [Example 262, 5-(2-(Morpholinomethyl)-1H-pyrrolo[2,3-b]pyridine-4-yl)-1H-indazol-3-amine]",
0.325,,"CC(C)(N)C#Cc1c(-c2ccc3[nH]nc(N)c3c2)ccnc1N [Example 92, 5-(2-Amino-3-(3-amino-3-methylbut-1-yn-1-yl)pyridin-4-yl)-1H-indazol-3-amine]",
,0.272,"Nc1n[nH]c2ccc(-c3ccnc4[nH]c(C5CCCCO5)cc34)cc12 (centres unmarked) [Example 229, 5-(2-(Tetrahydro-2H-pyran-2-yl)-1H-pyrrolo[2,3-b]pyridin-4-yl)-1H-indazol-3-amine]",
,3.1,"Nc1n[nH]c2c(C#CCCCN3CCOCC3)cc(-c3ccnc4[nH]ccc34)cc12 [Example 210, 7-(5-Morpholinopent-1-yn-1-yl)-5-(1H-pyrrolo[2,3-b]pyridin-4-yl)-1H-indazol-3-amine]",
,0.134,"Nc1n[nH]c2ccc(-c3ccnc4[nH]c(CCC5CCCCC5)cc34)cc12 [Example 222, 5-(2-(2-Cyclohexylethyl)-1H-pyrrolo[2,3-b]pyridin-4-yl)-1H-indazol-3-amine]",
